Patent EP0943336A1, “PEPTIDE-CONTAINING PHARMACEUTICAL COMPOSITIONS FOR ORAL ADMINISTRATION” (DOTT RESEARCH LABORATORY, priority 1996, dated 1999)
Read-outs that look alike come from different tables or passages of the source.

Experiments:
[1] = Absorption after oral administration of PTH (1-34) composition with diclofenac (blood PTH (1-34) level, ELISA); format: in vivo, cynomolgus monkeys; settings: 10 mg diclofenac added to PTH (1-34)/magnesium oxide composition
Excerpt: (§1) Then, the resultant mixture was filled in enteric coating capsules.

[2] = parameters: species or system cynomolgus monkeys; settings: cynomolgus monkey, in vivo
Excerpt: as §1

[3] = cynomolgus monkey, in vivo
Procedure: Both components were mixed to make a composition in which the PTH (1-34) content was 600 µg/200 mg, and the resultant mixture was filled in enteric coating capsules.
The particle diameter of calcium carbonate, AW ceramics, and magnesium oxide used as the carrier was 40 to 45 µm.
A single oral dose of the above-mentioned composition was administered to two cynomolgus monkeys weighing 5 kg. Their blood samples were collected before dosing, and at 30, 60, 90, 120, 180, 240, 300, and 360 minutes after dosing to determine the blood PTH (1-34) level by using ELISA with a 1-34PTH2 antibody.

[4] = Absorption after oral administration of buserelin composition (blood buserelin level, direct method); format: in vivo, cynomolgus monkeys; settings: calcium carbonate carrier, enteric capsules; for level at 2 h / level at 2.5 h: cynomolgus monkey, blood, po; for level at 2 h: 120 min after oral dose; for level at 2.5 h: 150 min after oral dose
Excerpt: The particle diameter of calcium carbonate as the carrier was 40 to 45 µm.

## O=C(O)Cc1ccccc1Nc1c(Cl)cccc1Cl [diclofenac]
[1]
  effect of addition on absorption of PTH (1-34) (in words): enhanced its absorption

## PTH (1-34)
[2]
  absorption after oral administration (in words): well absorbed
[3]
  absorption after oral administration (in words): well absorbed

## CCNC(=O)[C@@H]1CCCN1C(=O)[C@H](CCCNC(=N)N)NC(=O)[C@H](CC(C)C)NC(=O)[C@@H](COC(C)(C)C)NC(=O)[C@H](Cc1ccc(O)cc1)NC(=O)[C@H](CO)NC(=O)[C@H](Cc1c[nH]c2ccccc12)NC(=O)[C@H](Cc1cnc[nH]1)NC(=O)[C@@H]1CCC(=O)N1 [buserelin, Buserelin]
[4]; 30 min after oral dose, Animal No. 1
  Blood buserelin level: 30 or less pg/ml
[4]; 30 min after oral dose, Animal No. 2
  Blood buserelin level: 30 or less pg/ml
[4]; 30 min after oral dose, Animal No. 3
  Blood buserelin level: 30 or less pg/ml
[4]; 45 min after oral dose, Animal No. 1
  Blood buserelin level: 30 or less pg/ml
[4]; 45 min after oral dose, Animal No. 2
  Blood buserelin level: 30 or less pg/ml
[4]; 45 min after oral dose, Animal No. 3
  Blood buserelin level: 30 or less pg/ml
[4]; 60 min after oral dose, Animal No. 1
  Blood buserelin level: 30 or less pg/ml
[4]; 60 min after oral dose, Animal No. 2
  Blood buserelin level: 30 or less pg/ml
[4]; 60 min after oral dose, Animal No. 3
  Blood buserelin level: 30 or less pg/ml
[4]; Before dosing, Animal No. 1, oral
  Blood buserelin level: 30 or less pg/ml
[4]; Before dosing, Animal No. 2, oral
  Blood buserelin level: 30 or less pg/ml
[4]; Before dosing, Animal No. 3, oral
  Blood buserelin level: 30 or less pg/ml
[4]; Animal No. 1
  level at 2 h: 0.066 ng/mL
  level at 2.5 h: 0.081 ng/mL
[4]; Animal No. 2
  level at 2 h: 0.107 ng/mL
  level at 2.5 h: 0.193 ng/mL
[4]; Animal No. 3
  level at 2 h: 0.053 ng/mL
  level at 2.5 h: 0.07 ng/mL
[4]
  absorption after oral administration (in words): well absorbed
